Test results reported in ChEMBL document CHEMBL1121591, “Synthesis and antitumor activity of 2,4-diamino-6-(2,5-dimethoxybenzyl)-5-methylpyrido[2,3-d]pyrimidine” (1980).

What was measured:
Format in all cases: functional
[1] = test system: CCRF S-180; experiment: Cytotoxic activity against the S180 cell cultures; details: Mus musculus, read-out: ED50 (the source's name)
[2] = test system: W256; experiment: Cytotoxic activity against the Walker 256 carcinosarcoma in rats; details: Rattus norvegicus, read-out: ED50 (the source's name)
[3] = test system: L1210; experiment: Cytotoxic activity against the L1210 cell cultures; details: Mus musculus, read-out: ED50 (the source's name)

Structure (SMILES)	EC50 [1]	EC50 [2]	EC50 [3]
CN(Cc1cnc2nc(N)nc(N)c2n1)c1ccc(C(=O)N[C@@H](CCC(=O)O)C(=O)O)cc1 [METHOTREXATE]	16 nM	20 nM	16 nM
COc1ccc(OC)c(Cc2cnc3nc(N)nc(N)c3c2C)c1 [PIRITREXIM]	12 nM	8 nM	2 nM
Cc1nc(N)nc(N)c1-c1ccc(Cl)c(Cl)c1 [METOPRINE]	50 nM	50 nM	220 nM
